How the values were obtained:
FPR-negative U937 cells = assay: Chemotaxis of FPR-negative U937 cells; assay type: cell-based; details: result in words
FPR = details: compared with fMLF; result in words; ref [13]; cited from earlier work

Question: For “N-formyl-norleucine-leucine-phenylalanine [Compound 1]”, which “chemotactic activity in FPR-negative U937 cells” value (FPR-negative U937 cells) is on record?
Answer: None of the compounds induce chemotactic activity

Question: What about the “chemoattractant potency relative to fMLF” value (FPR) of the same substance?
Answer: less potent than fMLF

Reference: article PMC2913153 (Journal of the American Chemical Society, 2010)
